Experimental data as given in patent publication US9492471B2, “Methods of treating a disease or disorder associated with Bruton'S Tyrosine Kinase” (Celgene Avilomics Research, Inc., priority 2013, dated 2016).
Where two headings read alike, the source gives them in different places.

Legend:
Test in all cases: HotSpot kinase profiling
Assay type in all cases: biochemical
CK1g2 = biological target: T1, CK1g2 (Homo sapiens, UniProt P78368)
T1 construct: purchased Reaction Biology Corp
How it was run: (§1)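 Radiometric kinase assay with P81 filter capture; each kinase was added to fresh substrate plus cofactors in reaction buffer and incubated 2 h at room temperature. Unreacted phosphate was washed off with 0.1% phosphoric acid before detection; percent inhibition is relative to DMSO control, averaged over replicates.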

MSK1/RPS6KA5 = biological target: T2, MSK1/RPS6KA5 (Homo sapiens, UniProt O75582)
T2 construct: purchased Reaction Biology Corp
T2 sequence (O75582 whole entry): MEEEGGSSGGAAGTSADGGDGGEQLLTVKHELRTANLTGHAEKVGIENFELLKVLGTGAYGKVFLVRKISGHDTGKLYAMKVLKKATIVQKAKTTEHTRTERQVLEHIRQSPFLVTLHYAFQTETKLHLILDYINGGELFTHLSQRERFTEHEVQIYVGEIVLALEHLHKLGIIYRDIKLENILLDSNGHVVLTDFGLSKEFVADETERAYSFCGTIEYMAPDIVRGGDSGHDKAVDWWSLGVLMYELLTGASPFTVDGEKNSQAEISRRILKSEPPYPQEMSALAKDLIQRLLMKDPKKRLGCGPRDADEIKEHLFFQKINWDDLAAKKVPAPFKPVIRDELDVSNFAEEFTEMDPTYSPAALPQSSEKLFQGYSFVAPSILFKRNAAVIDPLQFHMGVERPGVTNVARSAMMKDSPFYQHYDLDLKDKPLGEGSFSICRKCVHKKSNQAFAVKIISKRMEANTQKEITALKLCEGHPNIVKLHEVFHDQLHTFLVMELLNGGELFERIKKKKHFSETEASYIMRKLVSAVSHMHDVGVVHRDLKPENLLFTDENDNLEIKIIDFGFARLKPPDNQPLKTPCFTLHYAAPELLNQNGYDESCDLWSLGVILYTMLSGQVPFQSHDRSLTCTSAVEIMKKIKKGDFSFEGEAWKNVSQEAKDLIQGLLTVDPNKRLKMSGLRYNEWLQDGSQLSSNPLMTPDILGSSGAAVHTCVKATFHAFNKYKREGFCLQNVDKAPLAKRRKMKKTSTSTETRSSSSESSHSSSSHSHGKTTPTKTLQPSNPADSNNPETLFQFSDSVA
How it was run: as §1

NEK7 = biological target: T3, NEK7 (Homo sapiens, UniProt Q8TDX7)
T3 construct: purchased Reaction Biology Corp
T3 sequence (Q8TDX7 whole entry): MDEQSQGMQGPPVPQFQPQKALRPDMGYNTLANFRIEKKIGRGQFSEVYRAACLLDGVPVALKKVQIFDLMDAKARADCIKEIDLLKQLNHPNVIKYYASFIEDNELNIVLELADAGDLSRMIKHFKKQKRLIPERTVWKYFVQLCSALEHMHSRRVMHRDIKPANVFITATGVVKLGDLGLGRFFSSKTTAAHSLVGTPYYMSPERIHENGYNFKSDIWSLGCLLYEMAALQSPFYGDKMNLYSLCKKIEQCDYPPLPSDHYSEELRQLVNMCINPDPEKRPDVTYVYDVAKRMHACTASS
How it was run: as §1

IKKb/IKBKB = biological target: T4, IKKb/IKBKB (Homo sapiens, UniProt O14920)
T4 construct: purchased Reaction Biology Corp
T4 sequence (O14920 1-756): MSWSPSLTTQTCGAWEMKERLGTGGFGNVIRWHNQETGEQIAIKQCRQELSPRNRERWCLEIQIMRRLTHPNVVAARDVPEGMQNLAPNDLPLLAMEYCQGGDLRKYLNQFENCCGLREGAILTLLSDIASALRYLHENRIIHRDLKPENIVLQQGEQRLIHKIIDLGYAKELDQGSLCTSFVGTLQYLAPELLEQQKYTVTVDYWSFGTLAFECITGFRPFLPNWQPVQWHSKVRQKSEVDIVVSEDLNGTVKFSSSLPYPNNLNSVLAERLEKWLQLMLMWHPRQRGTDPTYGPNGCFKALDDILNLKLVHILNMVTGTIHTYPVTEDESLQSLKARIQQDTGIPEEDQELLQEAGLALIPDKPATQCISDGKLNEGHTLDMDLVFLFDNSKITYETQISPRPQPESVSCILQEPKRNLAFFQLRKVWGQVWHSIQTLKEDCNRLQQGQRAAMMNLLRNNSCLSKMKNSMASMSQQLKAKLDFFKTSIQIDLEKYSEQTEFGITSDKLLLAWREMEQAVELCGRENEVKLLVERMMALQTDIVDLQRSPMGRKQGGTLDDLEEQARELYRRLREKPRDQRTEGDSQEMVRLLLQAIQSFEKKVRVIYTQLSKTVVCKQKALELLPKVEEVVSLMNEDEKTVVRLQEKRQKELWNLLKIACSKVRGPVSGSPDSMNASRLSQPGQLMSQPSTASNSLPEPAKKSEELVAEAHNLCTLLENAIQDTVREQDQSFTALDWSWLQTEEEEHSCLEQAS
How it was run: as §1

AKT1 = biological target: T5, AKT1 (Homo sapiens, UniProt P31749)
T5 construct: purchased Reaction Biology Corp
T5 sequence (P31749 whole entry): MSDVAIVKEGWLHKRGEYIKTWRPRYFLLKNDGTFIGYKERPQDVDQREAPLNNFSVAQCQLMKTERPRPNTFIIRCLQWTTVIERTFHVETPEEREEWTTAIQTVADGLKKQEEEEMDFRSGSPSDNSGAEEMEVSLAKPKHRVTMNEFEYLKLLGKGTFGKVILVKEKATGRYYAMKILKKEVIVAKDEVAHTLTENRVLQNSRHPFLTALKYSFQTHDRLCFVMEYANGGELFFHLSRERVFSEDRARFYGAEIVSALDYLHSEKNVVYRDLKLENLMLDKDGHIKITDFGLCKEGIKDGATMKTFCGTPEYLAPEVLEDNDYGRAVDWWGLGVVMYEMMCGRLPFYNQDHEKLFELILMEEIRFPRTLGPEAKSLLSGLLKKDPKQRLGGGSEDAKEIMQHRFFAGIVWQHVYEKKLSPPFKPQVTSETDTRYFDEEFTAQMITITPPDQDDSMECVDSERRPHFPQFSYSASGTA
How it was run: as §1

EPHB3 = biological target: T6, EPHB3 (Homo sapiens, UniProt P54753)
T6 construct: purchased Reaction Biology Corp
T6 sequence (P54753 34-998): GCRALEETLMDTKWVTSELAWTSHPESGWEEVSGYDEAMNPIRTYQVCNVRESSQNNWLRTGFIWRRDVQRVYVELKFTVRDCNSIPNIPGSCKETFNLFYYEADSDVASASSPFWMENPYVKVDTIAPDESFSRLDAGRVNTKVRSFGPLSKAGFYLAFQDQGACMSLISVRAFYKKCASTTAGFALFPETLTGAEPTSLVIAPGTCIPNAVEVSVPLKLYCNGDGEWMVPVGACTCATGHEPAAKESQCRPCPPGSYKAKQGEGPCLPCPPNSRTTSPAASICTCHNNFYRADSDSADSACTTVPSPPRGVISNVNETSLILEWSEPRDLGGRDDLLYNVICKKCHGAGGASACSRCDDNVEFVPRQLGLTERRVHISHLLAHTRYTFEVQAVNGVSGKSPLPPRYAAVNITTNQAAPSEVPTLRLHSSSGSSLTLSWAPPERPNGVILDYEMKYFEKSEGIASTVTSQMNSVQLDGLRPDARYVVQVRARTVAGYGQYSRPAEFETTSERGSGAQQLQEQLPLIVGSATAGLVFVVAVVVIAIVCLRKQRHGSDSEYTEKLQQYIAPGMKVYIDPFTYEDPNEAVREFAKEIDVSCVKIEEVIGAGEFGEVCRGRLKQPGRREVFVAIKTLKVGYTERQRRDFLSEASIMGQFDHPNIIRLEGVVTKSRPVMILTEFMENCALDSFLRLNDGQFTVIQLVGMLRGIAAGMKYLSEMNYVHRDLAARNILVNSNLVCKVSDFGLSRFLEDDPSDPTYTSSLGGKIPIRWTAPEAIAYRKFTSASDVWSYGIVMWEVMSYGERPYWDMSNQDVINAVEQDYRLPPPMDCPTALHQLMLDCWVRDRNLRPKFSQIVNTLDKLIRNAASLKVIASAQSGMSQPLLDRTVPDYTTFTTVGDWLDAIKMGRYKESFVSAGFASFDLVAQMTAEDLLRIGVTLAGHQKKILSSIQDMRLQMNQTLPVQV
How it was run: as §1

ZIPK/DAPK3 = biological target: T7, ZIPK/DAPK3 (Homo sapiens, UniProt O43293)
T7 construct: purchased Reaction Biology Corp
T7 sequence (O43293 whole entry): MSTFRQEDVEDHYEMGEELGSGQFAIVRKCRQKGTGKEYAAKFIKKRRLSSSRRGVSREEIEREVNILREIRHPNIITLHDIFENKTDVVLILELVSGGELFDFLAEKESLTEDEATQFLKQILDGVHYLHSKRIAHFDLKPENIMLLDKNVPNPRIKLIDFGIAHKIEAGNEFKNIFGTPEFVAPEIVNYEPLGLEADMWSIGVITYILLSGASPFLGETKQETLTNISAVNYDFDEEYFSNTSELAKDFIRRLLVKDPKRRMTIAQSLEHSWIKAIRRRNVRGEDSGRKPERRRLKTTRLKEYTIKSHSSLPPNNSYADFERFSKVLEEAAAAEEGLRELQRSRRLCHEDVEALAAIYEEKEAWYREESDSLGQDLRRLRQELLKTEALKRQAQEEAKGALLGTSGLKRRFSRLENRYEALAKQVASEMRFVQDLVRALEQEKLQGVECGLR
How it was run: as §1

[1] = read-out: % Enzyme Activity (relative to DMSO controls) Run 1
[2] = read-out: % Enzyme Activity (relative to DMSO controls) Run 2

T1 sequence (P78368 whole entry): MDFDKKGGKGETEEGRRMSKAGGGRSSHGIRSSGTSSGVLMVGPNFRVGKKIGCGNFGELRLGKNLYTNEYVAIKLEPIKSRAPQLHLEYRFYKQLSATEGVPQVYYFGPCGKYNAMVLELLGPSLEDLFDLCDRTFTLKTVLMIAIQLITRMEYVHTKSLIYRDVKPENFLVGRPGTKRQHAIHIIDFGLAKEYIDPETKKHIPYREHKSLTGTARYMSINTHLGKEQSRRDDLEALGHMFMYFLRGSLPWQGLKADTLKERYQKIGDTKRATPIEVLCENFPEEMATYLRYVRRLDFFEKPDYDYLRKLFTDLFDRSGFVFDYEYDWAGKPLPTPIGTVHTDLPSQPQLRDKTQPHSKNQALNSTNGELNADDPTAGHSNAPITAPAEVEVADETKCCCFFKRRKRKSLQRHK

**Q.** How did the inhibition at 3 µM (CK1g2) turn out when `C=CC(=O)Nc1cccc(Nc2nc(Nc3ccc(OCCOC)c(F)c3)ncc2F)c1` [Compound 2] was run?
**A.** 12.6%

**Q.** And the remaining activity at 3 µM (CK1g2; [1])?
**A.** 89.1%

**Q.** What about the remaining activity at 3 µM (CK1g2; [2]) of the same molecule?
**A.** 85.7%

**Q.** And the inhibition at 3 µM (MSK1/RPS6KA5)?
**A.** 2.7%

**Q.** What about the remaining activity at 3 µM (MSK1/RPS6KA5; [1]) of the same molecule?
**A.** 94.9%

**Q.** What about the remaining activity at 3 µM (MSK1/RPS6KA5; [2]) of the same molecule?
**A.** 99.7%

**Q.** What about the inhibition at 3 µM (NEK7) of the same molecule?
**A.** 0.68%

**Q.** And the remaining activity at 3 µM (NEK7; [1])?
**A.** 98.3%

**Q.** What about the remaining activity at 3 µM (NEK7; [2]) of the same molecule?
**A.** 100%

**Q.** What about the inhibition at 3 µM (IKKb/IKBKB) of the same molecule?
**A.** 3.75%

**Q.** What about the remaining activity at 3 µM (IKKb/IKBKB; [1]) of the same molecule?
**A.** 95.4%

**Q.** What about the remaining activity at 3 µM (IKKb/IKBKB; [2]) of the same molecule?
**A.** 97.1%

**Q.** What about the inhibition at 3 µM (AKT1) of the same molecule?
**A.** 5.87%

**Q.** What about the remaining activity at 3 µM (AKT1; [1]) of the same molecule?
**A.** 95.1%

**Q.** And the remaining activity at 3 µM (AKT1; [2])?
**A.** 93.1%

**Q.** And the inhibition at 3 µM (EPHB3)?
**A.** 1.31%

**Q.** What about the remaining activity at 3 µM (EPHB3; [1]) of the same molecule?
**A.** 99.2%

**Q.** What about the remaining activity at 3 µM (EPHB3; [2]) of the same molecule?
**A.** 98.2%

**Q.** And the inhibition at 3 µM (ZIPK/DAPK3)?
**A.** -11.3%

**Q.** What about the remaining activity at 3 µM (ZIPK/DAPK3; [1]) of the same molecule?
**A.** 109%

**Q.** And the remaining activity at 3 µM (ZIPK/DAPK3; [2])?
**A.** 113%
